Legend:
Assay in all cases: biochemical
Parameters in all cases: DiscoveRx KINOMEscan competition binding, percent of DMSO control signal at 100 nM
Details in all cases: read-out: Fig. 4a / Percent Control / Compound 1; percent of DMSO control, competition binding
CDC2L2 = molecular target: T1, CDC2L2 (Homo sapiens, UniProt Q9UQ88)
T1 construct: gene CDK11A
Experimental: (§1) The kinase selectivity profile was performed by using the DiscoveRx KINOMEscan platform. […] Test compounds were prepared as 40× stocks in 100% DMSO and directly diluted into the assay. The results were defined as a percentage of signal between the negative (DMSO, 100% control) and the positive (control compound, 0% control) control, which was calculated as follows: percent control = [(test compound signal − positive control signal)/(negative control signal − positive control signal)] × 100.

MYLK2 = MYLK2 (Homo sapiens, UniProt Q9H1R3)
Experimental: as §1

NDR2 = molecular target: T2, NDR2 (Homo sapiens, UniProt Q9Y2H1)
T2 construct: gene STK38L
Experimental: as §1

AXL = AXL (Homo sapiens, UniProt P30530)
AXL, sequence (P30530 whole entry): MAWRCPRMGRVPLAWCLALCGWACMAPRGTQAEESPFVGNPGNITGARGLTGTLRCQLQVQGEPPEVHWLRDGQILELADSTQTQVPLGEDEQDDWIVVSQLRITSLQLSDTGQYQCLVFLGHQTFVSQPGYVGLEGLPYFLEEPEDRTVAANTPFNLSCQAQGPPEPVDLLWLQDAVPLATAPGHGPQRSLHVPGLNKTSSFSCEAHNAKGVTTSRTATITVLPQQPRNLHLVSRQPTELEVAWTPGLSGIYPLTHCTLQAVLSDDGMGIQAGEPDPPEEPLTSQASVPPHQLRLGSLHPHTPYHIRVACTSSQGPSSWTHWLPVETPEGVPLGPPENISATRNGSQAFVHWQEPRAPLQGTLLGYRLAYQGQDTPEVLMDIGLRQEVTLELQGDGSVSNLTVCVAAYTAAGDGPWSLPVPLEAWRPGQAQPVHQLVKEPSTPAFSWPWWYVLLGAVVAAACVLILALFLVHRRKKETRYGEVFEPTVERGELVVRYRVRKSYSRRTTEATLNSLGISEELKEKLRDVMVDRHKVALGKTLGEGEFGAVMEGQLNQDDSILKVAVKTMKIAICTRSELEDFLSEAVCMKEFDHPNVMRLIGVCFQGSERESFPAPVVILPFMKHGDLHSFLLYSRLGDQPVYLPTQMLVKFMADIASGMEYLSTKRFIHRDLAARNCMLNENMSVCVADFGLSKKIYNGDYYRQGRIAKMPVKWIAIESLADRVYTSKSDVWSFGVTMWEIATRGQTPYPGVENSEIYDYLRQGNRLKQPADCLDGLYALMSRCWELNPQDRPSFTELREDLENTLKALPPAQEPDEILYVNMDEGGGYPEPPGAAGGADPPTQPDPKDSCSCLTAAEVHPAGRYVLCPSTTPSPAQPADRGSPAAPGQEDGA
Experimental: as §1

GCN2(Kin.Dom.2,S808G) = molecular target: T3, GCN2(Kin.Dom.2,S808G) (Homo sapiens, UniProt Q9P2K8, S808G)
T3 construct: gene EIF2AK4; Kin.Dom.2
Experimental: as §1

ABL1-nonphosphorylated = molecular target: T4, ABL1-nonphosphorylated (Homo sapiens, UniProt P00519)
T4 construct: nonphosphorylated
Experimental: as §1

WEE1 = WEE1 (Homo sapiens, UniProt P30291)
Experimental: as §1

MAP4K3 = MAP4K3 (Homo sapiens, UniProt Q8IVH8)
Experimental: as §1

MST4 = molecular target: T5, MST4 (Homo sapiens, UniProt Q9P289)
T5 construct: gene STK26
T5 sequence (Q9P289 whole entry): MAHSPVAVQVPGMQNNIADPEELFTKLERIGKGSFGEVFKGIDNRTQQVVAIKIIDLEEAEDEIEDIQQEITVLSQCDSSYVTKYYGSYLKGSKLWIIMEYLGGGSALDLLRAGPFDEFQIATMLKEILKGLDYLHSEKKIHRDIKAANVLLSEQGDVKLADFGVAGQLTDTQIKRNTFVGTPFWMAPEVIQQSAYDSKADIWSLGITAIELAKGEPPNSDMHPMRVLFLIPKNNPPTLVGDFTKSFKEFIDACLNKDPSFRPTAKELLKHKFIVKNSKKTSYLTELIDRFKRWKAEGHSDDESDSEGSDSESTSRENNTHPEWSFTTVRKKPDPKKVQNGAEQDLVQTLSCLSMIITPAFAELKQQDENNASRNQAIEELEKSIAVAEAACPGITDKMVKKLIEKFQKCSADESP
Experimental: as §1

JNK2 = molecular target: T6, JNK2 (Homo sapiens, UniProt P45984)
T6 construct: gene MAPK9
Experimental: as §1

NEK10 = NEK10 (Homo sapiens, UniProt Q6ZWH5)
Experimental: as §1

NEK7 = NEK7 (Homo sapiens, UniProt Q8TDX7)
NEK7, sequence (Q8TDX7 whole entry): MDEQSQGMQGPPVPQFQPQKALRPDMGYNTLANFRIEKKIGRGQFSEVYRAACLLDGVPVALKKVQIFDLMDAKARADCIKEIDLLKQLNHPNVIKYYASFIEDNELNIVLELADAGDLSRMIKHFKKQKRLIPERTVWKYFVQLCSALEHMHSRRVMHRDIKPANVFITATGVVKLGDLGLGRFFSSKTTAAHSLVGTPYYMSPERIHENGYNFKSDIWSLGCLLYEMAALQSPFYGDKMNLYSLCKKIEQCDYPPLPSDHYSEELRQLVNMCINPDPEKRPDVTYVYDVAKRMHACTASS
Experimental: as §1

BLK = BLK (Homo sapiens, UniProt P51451)
Experimental: as §1

EPHA4 = EPHA4 (Homo sapiens, UniProt P54764)
Experimental: as §1

RIPK1 = RIPK1 (Homo sapiens, UniProt Q13546)
RIPK1, sequence (Q13546 whole entry): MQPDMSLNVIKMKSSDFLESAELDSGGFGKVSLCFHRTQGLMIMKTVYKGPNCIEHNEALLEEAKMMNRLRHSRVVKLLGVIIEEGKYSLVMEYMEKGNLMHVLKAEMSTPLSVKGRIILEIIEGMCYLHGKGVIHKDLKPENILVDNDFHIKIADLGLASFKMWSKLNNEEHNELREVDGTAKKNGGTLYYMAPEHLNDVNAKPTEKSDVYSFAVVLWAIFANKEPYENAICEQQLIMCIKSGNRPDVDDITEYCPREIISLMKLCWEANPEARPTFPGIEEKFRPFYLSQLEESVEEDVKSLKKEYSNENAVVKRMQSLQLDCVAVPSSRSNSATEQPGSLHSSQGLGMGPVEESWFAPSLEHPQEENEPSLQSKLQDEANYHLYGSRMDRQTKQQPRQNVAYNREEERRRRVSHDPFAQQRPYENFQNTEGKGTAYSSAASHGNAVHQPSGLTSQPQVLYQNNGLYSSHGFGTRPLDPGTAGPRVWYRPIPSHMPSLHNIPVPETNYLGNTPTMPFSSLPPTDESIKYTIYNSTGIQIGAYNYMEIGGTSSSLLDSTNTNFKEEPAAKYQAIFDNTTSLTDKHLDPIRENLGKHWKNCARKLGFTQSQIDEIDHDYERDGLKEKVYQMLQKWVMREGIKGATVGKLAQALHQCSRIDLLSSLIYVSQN
Experimental: as §1

[1] = molecular target: T7, JAK3(JH1domain-catalytic) (Homo sapiens, UniProt P52333)
T7 construct: JH1domain-catalytic
Experimental: as §1

NEK11 = NEK11 (Homo sapiens, UniProt Q8NG66)
Experimental: as §1

EGFR(L858R,T790M) = EGFR(L858R,T790M) (Homo sapiens, UniProt P00533, L858R/T790M)
Experimental: as §1

CDK5 = CDK5 (Homo sapiens, UniProt Q00535)
Experimental: as §1

FLT3 = FLT3 (Homo sapiens, UniProt P36888)
Experimental: as §1

EGFR = EGFR (Homo sapiens, UniProt P00533)
Experimental: as §1

CLK3 = CLK3 (Homo sapiens, UniProt P49761)
Experimental: as §1

WEE2 = WEE2 (Homo sapiens, UniProt P0C1S8)
Experimental: as §1

AKT2 = AKT2 (Homo sapiens, UniProt P31751)
Experimental: as §1

WNK2 = WNK2 (Homo sapiens, UniProt Q9Y3S1)
WNK2, sequence (Q9Y3S1 whole entry): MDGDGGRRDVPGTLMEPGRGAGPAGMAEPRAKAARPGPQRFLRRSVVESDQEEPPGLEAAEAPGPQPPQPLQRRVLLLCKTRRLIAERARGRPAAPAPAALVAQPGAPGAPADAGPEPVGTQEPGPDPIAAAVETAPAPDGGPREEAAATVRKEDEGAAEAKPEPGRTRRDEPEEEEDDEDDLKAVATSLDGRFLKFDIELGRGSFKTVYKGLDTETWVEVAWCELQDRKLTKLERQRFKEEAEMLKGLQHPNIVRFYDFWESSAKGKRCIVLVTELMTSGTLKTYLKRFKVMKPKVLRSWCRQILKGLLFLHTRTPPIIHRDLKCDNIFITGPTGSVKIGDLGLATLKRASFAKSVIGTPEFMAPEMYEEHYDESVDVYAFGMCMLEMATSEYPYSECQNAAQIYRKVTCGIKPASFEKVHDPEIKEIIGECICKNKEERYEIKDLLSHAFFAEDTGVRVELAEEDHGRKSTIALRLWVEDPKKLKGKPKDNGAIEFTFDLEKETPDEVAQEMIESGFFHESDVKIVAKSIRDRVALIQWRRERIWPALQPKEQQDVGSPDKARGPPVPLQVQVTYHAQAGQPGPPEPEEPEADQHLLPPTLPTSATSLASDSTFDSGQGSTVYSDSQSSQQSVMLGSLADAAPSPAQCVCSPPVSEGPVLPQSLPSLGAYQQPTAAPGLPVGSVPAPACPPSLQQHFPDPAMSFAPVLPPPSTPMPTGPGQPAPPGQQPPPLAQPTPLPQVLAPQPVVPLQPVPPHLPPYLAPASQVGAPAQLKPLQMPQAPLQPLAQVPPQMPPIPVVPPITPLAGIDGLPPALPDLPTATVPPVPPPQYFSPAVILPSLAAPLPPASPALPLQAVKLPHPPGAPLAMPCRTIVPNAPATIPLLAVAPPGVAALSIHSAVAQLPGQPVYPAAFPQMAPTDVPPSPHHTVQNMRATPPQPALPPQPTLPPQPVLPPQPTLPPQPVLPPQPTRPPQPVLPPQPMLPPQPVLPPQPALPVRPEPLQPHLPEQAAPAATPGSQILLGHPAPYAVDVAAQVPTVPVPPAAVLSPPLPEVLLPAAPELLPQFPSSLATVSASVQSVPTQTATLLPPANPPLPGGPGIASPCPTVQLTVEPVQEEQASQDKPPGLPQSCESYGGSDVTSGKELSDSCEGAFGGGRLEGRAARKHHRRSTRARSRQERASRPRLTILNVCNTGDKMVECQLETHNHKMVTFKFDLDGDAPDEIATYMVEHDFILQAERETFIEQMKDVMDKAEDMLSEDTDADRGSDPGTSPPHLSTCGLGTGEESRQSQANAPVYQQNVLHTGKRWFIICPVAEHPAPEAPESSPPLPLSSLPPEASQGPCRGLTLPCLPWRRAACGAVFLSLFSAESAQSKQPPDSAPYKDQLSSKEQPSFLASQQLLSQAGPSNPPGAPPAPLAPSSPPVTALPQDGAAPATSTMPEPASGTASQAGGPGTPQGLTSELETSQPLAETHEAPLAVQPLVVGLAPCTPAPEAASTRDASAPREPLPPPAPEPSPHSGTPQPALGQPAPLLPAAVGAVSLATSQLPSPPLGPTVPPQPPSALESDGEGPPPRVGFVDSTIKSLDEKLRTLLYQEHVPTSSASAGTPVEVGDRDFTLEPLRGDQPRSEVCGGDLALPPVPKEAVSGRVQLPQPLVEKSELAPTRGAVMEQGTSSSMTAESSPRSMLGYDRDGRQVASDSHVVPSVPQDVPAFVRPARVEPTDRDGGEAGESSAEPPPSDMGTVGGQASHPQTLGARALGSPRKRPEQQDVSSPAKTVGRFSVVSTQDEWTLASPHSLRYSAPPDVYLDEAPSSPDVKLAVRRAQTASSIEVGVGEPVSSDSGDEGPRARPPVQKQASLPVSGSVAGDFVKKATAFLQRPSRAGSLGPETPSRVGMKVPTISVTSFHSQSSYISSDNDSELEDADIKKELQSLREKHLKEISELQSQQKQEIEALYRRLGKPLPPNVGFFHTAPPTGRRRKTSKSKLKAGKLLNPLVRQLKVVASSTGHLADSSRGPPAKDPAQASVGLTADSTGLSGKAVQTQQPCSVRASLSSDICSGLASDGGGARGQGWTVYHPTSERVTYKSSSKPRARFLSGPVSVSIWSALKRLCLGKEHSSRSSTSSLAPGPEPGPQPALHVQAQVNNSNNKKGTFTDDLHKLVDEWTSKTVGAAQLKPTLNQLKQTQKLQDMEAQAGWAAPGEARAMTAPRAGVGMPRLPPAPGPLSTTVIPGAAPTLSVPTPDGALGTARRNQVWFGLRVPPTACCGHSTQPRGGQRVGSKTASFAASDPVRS
Experimental: as §1
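Further: KINOMEscan kinase panel binding assay, signal normalized between DMSO as 100% and a positive control compound as 0%.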

T2 sequence (Q9Y2H1 whole entry): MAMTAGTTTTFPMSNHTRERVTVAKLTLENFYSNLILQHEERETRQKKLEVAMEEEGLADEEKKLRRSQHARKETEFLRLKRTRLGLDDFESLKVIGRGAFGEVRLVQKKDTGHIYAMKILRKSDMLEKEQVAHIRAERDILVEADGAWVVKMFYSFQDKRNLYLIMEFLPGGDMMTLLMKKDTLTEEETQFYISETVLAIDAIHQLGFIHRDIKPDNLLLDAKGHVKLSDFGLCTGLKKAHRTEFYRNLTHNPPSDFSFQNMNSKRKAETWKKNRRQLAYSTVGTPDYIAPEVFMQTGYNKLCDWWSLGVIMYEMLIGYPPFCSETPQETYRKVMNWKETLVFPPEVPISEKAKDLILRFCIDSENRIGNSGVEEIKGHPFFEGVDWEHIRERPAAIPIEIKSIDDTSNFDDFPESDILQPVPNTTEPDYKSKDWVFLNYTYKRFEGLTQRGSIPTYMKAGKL

Molecule Cc1cnc2nc1Nc1cccc(c1)COCc1cc(ccc1OCCN1CCCC1)N2 [Compound 1] has a remaining binding at 0.1 µM (CDC2L2) of 94%, a remaining binding at 0.1 µM (MYLK2) of 100% and a remaining binding at 0.1 µM (NDR2) of 92%. For the same molecule, the remaining binding at 0.1 µM (AXL) was 90%, the remaining binding at 0.1 µM (GCN2(Kin.Dom.2,S808G)) was 38% and the remaining binding at 0.1 µM (ABL1-nonphosphorylated) was 55%. It also gave a remaining binding at 0.1 µM (WEE1) of 90%, a remaining binding at 0.1 µM (MAP4K3) of 83% and a remaining binding at 0.1 µM (MST4) of 100%. For the same molecule, the remaining binding at 0.1 µM (JNK2) was 50%, the remaining binding at 0.1 µM (NEK10) was 95% and the remaining binding at 0.1 µM (NEK7) was 72%. The remaining binding at 0.1 µM (BLK) was 76%, the remaining binding at 0.1 µM (EPHA4) was 100% and the remaining binding at 0.1 µM (RIPK1) was 93%. For the same molecule, the remaining binding at 0.1 µM [1] was 12%, the remaining binding at 0.1 µM (NEK11) was 69% and the remaining binding at 0.1 µM (EGFR(L858R,T790M)) was 65%. It also gave a remaining binding at 0.1 µM (CDK5) of 100%, a remaining binding at 0.1 µM (FLT3) of 36% and a remaining binding at 0.1 µM (EGFR) of 81%. It also gave a remaining binding at 0.1 µM (CLK3) of 100%, a remaining binding at 0.1 µM (WEE2) of 78% and a remaining binding at 0.1 µM (AKT2) of 89%. The remaining binding at 0.1 µM (WNK2) was 100%.

Source: paper PMC10382584, “Macrocyclization of linear molecules by deep learning to facilitate macrocyclic drug candidates discovery” (Nature Communications, 2023)
